Measurements taken from patent publication US20240132521A1, “COMPOUNDS AND METHODS FOR MODULATING HER2” (Iambic Therapeutics, Inc., priority 2022, published 2024).

Tests used:
Format in all cases: cell-based
[1] = target: BaF3_HER2WT cells (Homo sapiens, UniProt P04626); assay: Cell growth inhibition assay (CellTiterGlo), BaF3_HER2WT; conditions: 3-day treatment, CellTiterGlo, read-out: Cell growth inhibition activity, HER2 WT
[2] = target: BaF3_HER2YVMA cells (Homo sapiens, UniProt P04626, DUP772-775, cells depend on it); assay: Cell growth inhibition assay (CellTiterGlo), BaF3_HER2YVMA; conditions: 3-day treatment, CellTiterGlo, read-out: Cell growth inhibition activity, HER2 - YVMA
BaF3_HER2YVMA cells, sequence (P04626 with tags, fused parts or gaps DUP772-775): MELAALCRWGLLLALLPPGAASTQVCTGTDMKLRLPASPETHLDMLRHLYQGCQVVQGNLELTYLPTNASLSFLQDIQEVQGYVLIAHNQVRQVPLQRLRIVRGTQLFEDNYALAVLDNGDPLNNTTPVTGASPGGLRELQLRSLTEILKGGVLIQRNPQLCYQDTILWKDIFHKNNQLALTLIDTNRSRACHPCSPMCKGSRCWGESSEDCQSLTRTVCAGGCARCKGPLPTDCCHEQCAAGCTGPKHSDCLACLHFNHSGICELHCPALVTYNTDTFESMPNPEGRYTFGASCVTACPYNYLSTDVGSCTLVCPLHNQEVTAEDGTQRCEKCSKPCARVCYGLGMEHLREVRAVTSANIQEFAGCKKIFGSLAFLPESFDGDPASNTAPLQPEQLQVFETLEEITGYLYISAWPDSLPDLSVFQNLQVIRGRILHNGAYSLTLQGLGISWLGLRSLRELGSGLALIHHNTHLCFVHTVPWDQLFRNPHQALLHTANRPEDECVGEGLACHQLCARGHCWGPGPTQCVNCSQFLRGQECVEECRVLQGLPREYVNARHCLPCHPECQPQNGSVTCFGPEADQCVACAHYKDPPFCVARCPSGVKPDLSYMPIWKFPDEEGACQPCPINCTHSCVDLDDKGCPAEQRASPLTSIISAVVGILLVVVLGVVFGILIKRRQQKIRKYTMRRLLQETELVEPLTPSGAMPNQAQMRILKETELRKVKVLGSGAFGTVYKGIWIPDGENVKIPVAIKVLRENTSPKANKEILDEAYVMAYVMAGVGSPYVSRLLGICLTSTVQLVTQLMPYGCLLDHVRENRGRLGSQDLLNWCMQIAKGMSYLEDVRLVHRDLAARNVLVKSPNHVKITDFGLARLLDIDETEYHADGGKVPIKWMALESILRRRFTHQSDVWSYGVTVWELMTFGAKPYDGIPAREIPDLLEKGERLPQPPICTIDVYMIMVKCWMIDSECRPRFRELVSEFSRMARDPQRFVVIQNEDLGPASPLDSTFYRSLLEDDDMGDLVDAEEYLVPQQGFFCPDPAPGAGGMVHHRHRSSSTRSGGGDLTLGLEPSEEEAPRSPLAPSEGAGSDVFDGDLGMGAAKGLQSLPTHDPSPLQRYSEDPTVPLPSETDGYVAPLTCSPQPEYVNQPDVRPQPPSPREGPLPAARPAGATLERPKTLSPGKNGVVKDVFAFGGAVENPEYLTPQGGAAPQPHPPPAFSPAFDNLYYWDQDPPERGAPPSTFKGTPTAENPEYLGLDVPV

[3] = target: BaF3_EGFRWT cells (Homo sapiens, UniProt P00533); assay: Cell growth inhibition assay (CellTiterGlo), BaF3_EGFRWT; conditions: 3-day treatment, CellTiterGlo, read-out: Cell growth inhibition activity, EGFR WT
BaF3_EGFRWT cells, sequence (P00533 whole entry, change not shown): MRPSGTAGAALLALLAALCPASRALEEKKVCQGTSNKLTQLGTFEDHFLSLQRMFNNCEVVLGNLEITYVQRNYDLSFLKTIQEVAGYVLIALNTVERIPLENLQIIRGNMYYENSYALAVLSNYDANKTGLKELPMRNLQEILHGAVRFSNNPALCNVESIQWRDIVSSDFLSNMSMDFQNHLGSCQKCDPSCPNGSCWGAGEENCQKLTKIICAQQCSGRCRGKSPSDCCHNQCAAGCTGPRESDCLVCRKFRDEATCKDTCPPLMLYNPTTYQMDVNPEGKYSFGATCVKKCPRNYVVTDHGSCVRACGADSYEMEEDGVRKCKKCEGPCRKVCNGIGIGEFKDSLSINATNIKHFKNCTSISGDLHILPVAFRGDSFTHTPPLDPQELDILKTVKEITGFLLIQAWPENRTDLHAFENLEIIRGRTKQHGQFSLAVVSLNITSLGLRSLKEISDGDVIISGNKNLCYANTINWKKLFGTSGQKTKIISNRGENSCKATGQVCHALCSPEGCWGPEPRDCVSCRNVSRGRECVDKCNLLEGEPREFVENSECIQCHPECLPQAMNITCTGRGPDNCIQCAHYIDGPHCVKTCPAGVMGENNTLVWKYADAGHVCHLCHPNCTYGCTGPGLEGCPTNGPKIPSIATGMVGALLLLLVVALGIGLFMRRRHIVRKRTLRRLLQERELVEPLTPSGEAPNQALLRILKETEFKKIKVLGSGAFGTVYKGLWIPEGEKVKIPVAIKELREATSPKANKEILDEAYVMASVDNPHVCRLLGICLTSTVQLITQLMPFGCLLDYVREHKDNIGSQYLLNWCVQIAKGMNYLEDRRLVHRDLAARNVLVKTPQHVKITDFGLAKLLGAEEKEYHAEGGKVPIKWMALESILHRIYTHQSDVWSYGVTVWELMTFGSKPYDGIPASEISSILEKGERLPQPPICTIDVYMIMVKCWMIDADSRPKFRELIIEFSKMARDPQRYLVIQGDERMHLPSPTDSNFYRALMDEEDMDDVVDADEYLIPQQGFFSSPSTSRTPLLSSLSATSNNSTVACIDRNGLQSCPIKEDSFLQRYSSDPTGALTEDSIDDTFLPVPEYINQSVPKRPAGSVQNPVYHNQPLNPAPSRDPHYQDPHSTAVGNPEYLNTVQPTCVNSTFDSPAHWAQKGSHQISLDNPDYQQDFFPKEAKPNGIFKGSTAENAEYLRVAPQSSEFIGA

BaF3_HER2WT cells, sequence (P04626 whole entry, change not shown): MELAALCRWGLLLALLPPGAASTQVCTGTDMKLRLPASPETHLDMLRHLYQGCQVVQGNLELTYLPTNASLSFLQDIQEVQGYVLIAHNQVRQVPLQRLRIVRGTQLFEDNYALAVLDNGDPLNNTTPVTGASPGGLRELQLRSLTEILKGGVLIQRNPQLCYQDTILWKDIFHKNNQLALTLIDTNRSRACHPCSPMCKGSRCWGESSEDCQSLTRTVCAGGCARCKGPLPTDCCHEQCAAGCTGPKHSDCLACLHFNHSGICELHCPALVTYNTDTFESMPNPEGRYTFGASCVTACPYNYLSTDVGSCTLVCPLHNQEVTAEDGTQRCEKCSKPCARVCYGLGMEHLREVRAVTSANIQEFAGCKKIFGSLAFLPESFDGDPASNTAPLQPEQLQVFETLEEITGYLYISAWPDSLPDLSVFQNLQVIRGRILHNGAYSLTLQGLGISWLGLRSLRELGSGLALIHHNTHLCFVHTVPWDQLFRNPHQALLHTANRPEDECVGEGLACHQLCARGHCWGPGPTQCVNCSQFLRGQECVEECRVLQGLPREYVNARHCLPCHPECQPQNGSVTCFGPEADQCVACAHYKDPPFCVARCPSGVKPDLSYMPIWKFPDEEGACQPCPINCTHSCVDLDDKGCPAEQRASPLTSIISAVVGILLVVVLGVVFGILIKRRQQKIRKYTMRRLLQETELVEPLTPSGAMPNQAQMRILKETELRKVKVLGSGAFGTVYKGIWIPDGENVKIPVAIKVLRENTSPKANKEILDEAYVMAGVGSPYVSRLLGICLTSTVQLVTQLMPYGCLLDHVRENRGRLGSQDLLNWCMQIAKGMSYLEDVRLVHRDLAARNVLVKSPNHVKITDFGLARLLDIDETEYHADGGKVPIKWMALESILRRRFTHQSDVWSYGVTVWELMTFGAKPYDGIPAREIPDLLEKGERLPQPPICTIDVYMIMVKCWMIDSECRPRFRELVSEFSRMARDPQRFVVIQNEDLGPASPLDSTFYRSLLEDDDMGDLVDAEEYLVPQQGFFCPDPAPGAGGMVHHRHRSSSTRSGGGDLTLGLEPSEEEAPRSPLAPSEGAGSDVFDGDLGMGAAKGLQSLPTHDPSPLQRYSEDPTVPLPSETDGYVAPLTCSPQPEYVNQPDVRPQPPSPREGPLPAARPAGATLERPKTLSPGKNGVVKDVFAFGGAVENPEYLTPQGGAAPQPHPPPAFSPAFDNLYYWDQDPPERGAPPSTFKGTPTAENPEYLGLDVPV

Row | SMILES | GI50 [1] | GI50 [2] | GI50 [3]
1 | C=CC(=O)N1CCN(c2ccn3ncnc(Nc4ccc(Oc5ccn6ncnc6c5)c(C)c4)c23)CC12CC2 [Example 75, 1-(7-(4-((4-([1,2,4]triazolo[1,5-a]pyridin-7-yloxy)-3-methylphenyl)amino)pyrrolo[2,1-f][1,2,4]triazin-5-yl)-4,7-diazaspiro[2.5]octan-4-yl)prop-2-en-1-one] | < 0.2 µM | < 0.2 µM | 0.5 to 1.5 µM
2 | C=CC(=O)NC1CCCN(c2ccn3ncnc(Nc4ccc(Oc5ccn6ncnc6c5)c(C)c4)c23)C1 (stereo not drawn) [Example 76, N-(1-(4-((4-([1,2,4]triazolo[1,5-a]pyridin-7-yloxy)-3-methylphenyl)amino)pyrrolo[2,1-f][1,2,4]triazin-5-yl)piperidin-3-yl)acrylamide] | < 0.2 µM | 0.5 to 1.5 µM | 1.5 to 5 µM
3 | C=CC(=O)N1CC(N(C)c2ccn3ncnc(Nc4ccc(Oc5ccn6ncnc6c5)c(C)c4)c23)C1 [Example 77, 1-(3-((4-((4-([1,2,4]triazolo[1,5-a]pyridin-7-yloxy)-3-methylphenyl)amino)pyrrolo[2,1-f][1,2,4]triazin-5-yl)(methyl)amino)azetidin-1-yl)prop-2-en-1-one] | 0.2 to 0.5 µM | 1.5 to 5 µM | 1.5 to 5 µM
4 | C=CC(=O)NC1CCN(c2ccn3ncnc(Nc4ccc(Oc5ccn6ncnc6c5)c(C)c4)c23)CC1 [Example 78, N-(1-(4-((4-([1,2,4]triazolo[1,5-a]pyridin-7-yloxy)-3-methylphenyl)amino)pyrrolo[2,1-f][1,2,4]triazin-5-yl)piperidin-4-yl)acrylamide] | < 0.2 µM | 0.2 to 0.5 µM | 1.5 to 5 µM
5 | C=CC(=O)NC1CCN(c2ccn3ncnc(Nc4ccc(Oc5ccn6ncnc6c5)c(C)c4)c23)C1 (stereo not drawn) [Example 79, N-(1-(4-((4-([1,2,4]triazolo[1,5-a]pyridin-7-yloxy)-3-methylphenyl)amino)pyrrolo[2,1-f][1,2,4]triazin-5-yl)pyrrolidin-3-yl)acrylamide] | < 0.2 µM | 0.2 to 0.5 µM | 1.5 to 5 µM

More lines, now with the values ahead:

Row | GI50 [1] | GI50 [2] | GI50 [3] | SMILES
6 | < 0.2 µM | 1.5 to 5 µM | 1.5 to 5 µM | Cc1cc(Nc2ncnn3ccc(N4CCCN(C(=O)/C=C/CN5CCOCC5)CC4)c23)ccc1Oc1ccn2ncnc2c1 [Example 80, (E)-1-(4-(4-((4-([1,2,4]triazolo[1,5-a]pyridin-7-yloxy)-3-methylphenyl)amino)pyrrolo[2,1-f][1,2,4]triazin-5-yl)-1,4-diazepan-1-yl)-4-morpholinobut-2-en-1-one]
7 | 0.2 to 0.5 µM | 1.5 to 5 µM | 1.5 to 5 µM | Cc1cc(Nc2ncnn3ccc(N4CC(NC(=O)/C=C/CN5CCOCC5)C4)c23)ccc1Oc1ccn2ncnc2c1 [Example 81, (E)-N-(1-(4-((4-([1,2,4]triazolo[1,5-a]pyridin-7-yloxy)-3-methylphenyl)amino)pyrrolo[2,1-f][1,2,4]triazin-5-yl)azetidin-3-yl)-4-morpholinobut-2-enamide]
8 | < 0.2 µM | 0.2 to 0.5 µM | 1.5 to 5 µM | Cc1cc(Nc2ncnn3ccc(C4CN(C(=O)/C=C/CN5CCC(F)(F)C5)C4)c23)ccc1Oc1ccn2ncnc2c1 [Example 84, (E)-1-(3-(4-((4-([1,2,4]triazolo[1,5-a]pyridin-7-yloxy)-3-methylphenyl)amino)pyrrolo[2,1-f][1,2,4]triazin-5-yl)azetidin-1-yl)-4-(3,3-difluoropyrrolidin-1-yl)but-2-en-1-one]
9 | < 0.2 µM | < 0.2 µM | 1.5 to 5 µM | Cc1cc(Nc2ncnn3ccc(C4CN(C(=O)/C=C/CN5CCC(F)(F)CC5)C4)c23)ccc1Oc1ccn2ncnc2c1 [Example 85, (E)-1-(3-(4-((4-([1,2,4]triazolo[1,5-a]pyridin-7-yloxy)-3-methylphenyl)amino)pyrrolo[2,1-f][1,2,4]triazin-5-yl)azetidin-1-yl)-4-(4,4-difluoropiperidin-1-yl)but-2-en-1-one]
